Assay results taken from ChEMBL document CHEMBL1201862, “PubChem BioAssay data set” (2004).
The source made the active and inactive calls.

Key:
Vibrio harveyi = experiment: Quorum Sensing, LuxS, LuxPQ Measured in Microorganism System Using Plate Reader - 2035-01_Inhibitor_DoseNoFile_DryPowder_Activity. [Related pubchem assays (depositor defined):AID2106]; type: functional, organism-based
[1] = biological target: Heat shock cognate 71 kDa protein (Homo sapiens, UniProt P11142); experiment: In Vitro Hsc70 Dose Response Fluorescence Polarization Assay. [Related pubchem assays: 1072 ]
[2] = biological target: T1, Tyrosine-protein phosphatase non-receptor type 7 (Homo sapiens, UniProt P35236); type: functional
T1 sequence (P35236 whole entry): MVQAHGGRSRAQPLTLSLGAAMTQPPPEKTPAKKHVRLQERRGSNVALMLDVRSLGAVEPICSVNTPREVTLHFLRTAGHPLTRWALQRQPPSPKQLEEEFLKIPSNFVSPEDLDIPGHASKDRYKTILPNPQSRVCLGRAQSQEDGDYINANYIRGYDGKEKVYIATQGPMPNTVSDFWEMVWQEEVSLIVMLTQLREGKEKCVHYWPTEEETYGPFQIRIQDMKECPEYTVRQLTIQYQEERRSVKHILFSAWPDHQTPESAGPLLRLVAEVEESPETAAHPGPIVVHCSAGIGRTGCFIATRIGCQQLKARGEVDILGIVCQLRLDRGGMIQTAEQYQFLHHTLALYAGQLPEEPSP

[3] = biological target: T2, Dual specificity protein phosphatase 6 (Rattus norvegicus, UniProt Q64346); experiment: inhibition of rat DUSP6 enzyme activity – biochemical, in vitro, primary screen (AID 425)
T2 sequence (Q64346 whole entry): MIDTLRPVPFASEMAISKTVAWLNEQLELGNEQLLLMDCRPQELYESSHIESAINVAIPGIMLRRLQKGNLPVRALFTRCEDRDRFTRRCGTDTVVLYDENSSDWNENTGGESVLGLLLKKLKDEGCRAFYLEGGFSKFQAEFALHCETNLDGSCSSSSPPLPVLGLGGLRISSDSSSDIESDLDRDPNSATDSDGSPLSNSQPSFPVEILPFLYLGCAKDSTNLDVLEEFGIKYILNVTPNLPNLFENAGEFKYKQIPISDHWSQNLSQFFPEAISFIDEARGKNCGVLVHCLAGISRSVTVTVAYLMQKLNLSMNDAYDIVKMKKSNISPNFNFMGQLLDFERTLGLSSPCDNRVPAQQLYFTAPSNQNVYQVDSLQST

[4] = biological target: Eukaryotic translation initiation factor 4E (Mus musculus, UniProt P63073); experiment: blockers of eIF4G binding by eIF4E – biochemical, TR-FRET, dose response (AID 855); type: functional;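 further: potency for disrupting eIF4E binding to eIF4GI seen as loss of FRET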
Large T antigen = Large T antigen (Simian virus 40, UniProt P03070); type: functional, Betapolyomavirus macacae;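 further: Confirmatory-stage PubChem screen for compounds that inhibit SV40 T antigen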
[5] = biological target: Heat shock 70 kDa protein 1A (Homo sapiens, UniProt P0DMV8); experiment: inhibition of Hsp70 binding activity – biochemical, fluorescence polarization, SAR follow-up (AID 1072)
[6] = biological target: Glyceraldehyde-3-phosphate dehydrogenase (Homo sapiens, UniProt P04406)
NS3 = NS3 (Hepatitis C virus, UniProt A3EZJ3); experiment: NS3h DNA-binding inhibition IC50 – biochemical, fluorescence polarization, ChemBridge library, dose response (AID 743264)
[7] = biological target: T2, Dual specificity protein phosphatase 6
[8] = biological target: Induced myeloid leukemia cell differentiation protein Mcl-1 (Homo sapiens, UniProt Q07820); type: functional
[9] = biological target: Lysosomal acid glucosylceramidase (Homo sapiens, UniProt P04062); experiment: Dose response cell-based high throughput screening assay to identify enhancers of beta-glucosidase activity. [Related pubchem assays: 784 ]; type: functional
[10] = biological target: T3, Corticotropin-releasing factor receptor 2/Corticotropin-releasing factor-binding protein (Homo sapiens, UniProt P24387+Q13324); experiment: activators of CRF receptor 2 with binding protein – uHTS hits, confirmation (AID 602473); type: functional; settings: read-out: EC50_Mean
T3 sequence (Q13324 whole entry): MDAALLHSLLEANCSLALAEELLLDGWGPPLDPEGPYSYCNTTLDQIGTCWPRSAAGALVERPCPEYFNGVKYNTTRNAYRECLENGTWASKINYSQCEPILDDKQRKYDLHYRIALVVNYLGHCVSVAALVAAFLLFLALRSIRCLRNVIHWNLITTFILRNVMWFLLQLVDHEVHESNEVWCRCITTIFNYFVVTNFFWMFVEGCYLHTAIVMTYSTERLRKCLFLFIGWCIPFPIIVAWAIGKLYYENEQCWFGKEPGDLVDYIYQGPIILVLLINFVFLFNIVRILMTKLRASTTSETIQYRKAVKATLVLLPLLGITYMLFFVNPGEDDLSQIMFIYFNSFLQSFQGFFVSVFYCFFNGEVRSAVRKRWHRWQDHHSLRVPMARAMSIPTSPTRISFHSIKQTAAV
T3 sequence (P24387 whole entry): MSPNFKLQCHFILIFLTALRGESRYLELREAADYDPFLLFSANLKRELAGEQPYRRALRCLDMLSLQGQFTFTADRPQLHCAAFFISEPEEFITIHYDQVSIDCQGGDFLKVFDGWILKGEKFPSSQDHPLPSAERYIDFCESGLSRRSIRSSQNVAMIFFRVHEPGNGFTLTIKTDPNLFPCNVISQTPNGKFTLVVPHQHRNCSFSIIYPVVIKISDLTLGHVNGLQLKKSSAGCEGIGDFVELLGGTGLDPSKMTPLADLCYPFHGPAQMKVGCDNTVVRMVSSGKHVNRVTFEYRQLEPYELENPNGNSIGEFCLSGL

Vasopressin V1a receptor = Vasopressin V1a receptor (Homo sapiens, UniProt P37288); experiment: Counterscreen for Oxytocin Receptor (OXTR) agonists: Fluorescence-based cell-based high throughput dose response assay to identify agonists of the vasopressin 1 receptor (V1R). [Related pubchem assays: 2435 (Primary screen (OXTR agonists in singlicate)), 434991 (Counterscreen (V1R agonists in triplicate)), 2482 (Summary (OXTR agonists)) …; type: functional
Oxytocin receptor = Oxytocin receptor (Homo sapiens, UniProt P30559); experiment: Fluorescence-based cell-based high throughput dose response assay for agonists of the Oxytocin Receptor (OXTR). [Related pubchem assays: 2435 (Primary screen (OXTR agonists in singlicate)), 434991 (Counterscreen (V1R agonists in triplicate)), 2482 (Summary (OXTR agonists)), 434963 (Confirmation screen (OXTR agonists in triplicate))]; type: functional
Cytochrome P450 2D6 = Cytochrome P450 2D6 (Homo sapiens, UniProt P10635); experiment: qHTS Assay for Inhibitors and Substrates of Cytochrome P450 2D6. [Related pubchem assays: 410 ]; type: ADME; settings: read-out: Potency
Cytochrome P450 2C9 = Cytochrome P450 2C9 (Homo sapiens, UniProt P11712); settings: Potency
Cytochrome P450 3A4 = Cytochrome P450 3A4 (Homo sapiens, UniProt P08684); settings: Potency;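 further: confirmatory qHTS run detecting inhibitors and substrates of CYP3A4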
Vero = experiment: Vero cell viability after compound exposure – synthesized analogs, set II, cytotoxicity control for West Nile virus antiviral project, SAR follow-up (AID 2402); type: functional; settings: Chlorocebus sabaeus
[11] = A Cell Based Assay for the Identification of Probe candidate Compounds with Anti- Venezuelan Equine Encephalitis virus. [Related pubchem assays: 2409, 2419, 1621, 2238, 2405, 2024, 2065, 2402, 2414, 1635, 1650, 2244 ]; type: functional
[12] = viability of uninfected HEp-2 cells – cell-based, HTS, cytotoxicity control for RSV inhibitor project, dose response (AID 2410); type: functional; settings: human respiratory syncytial virus
[13] = biological target: T4, Heat shock factor protein 1 (Mus musculus, UniProt P38532); experiment: decrease of HSF1-responsive luciferase luminescence – cell-based, NIH3T3, dose retest, confirmation (AID 2382); type: functional;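 further: NIH3T3 fibroblasts with HSF1-driven luciferase reporter stressed by proteasome inhibitor MG132; luminescence from HSF1-driven luciferase expression after 8 hours of MG132 stress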
T4 sequence (P38532 whole entry): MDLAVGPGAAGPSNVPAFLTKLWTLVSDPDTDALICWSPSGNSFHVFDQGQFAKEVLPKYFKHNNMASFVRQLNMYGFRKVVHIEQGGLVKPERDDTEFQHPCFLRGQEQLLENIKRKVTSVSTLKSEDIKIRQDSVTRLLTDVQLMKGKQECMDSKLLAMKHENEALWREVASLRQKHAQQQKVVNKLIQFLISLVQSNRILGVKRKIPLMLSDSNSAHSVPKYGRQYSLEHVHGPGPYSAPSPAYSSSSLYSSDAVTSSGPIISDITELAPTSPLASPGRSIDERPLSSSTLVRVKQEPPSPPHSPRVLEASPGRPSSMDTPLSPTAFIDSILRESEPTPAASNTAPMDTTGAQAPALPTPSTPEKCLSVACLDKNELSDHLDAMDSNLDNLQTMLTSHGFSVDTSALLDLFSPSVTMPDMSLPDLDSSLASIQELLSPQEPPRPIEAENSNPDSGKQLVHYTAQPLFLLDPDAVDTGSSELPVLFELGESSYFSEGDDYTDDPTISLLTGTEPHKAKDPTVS

Insulin-degrading enzyme = biological target: T5, Insulin-degrading enzyme (Homo sapiens, UniProt P14735); experiment: Dose Response: Fluorescence polarization-based cell-based high throughput dose response assay for inhibitors of insulin-degrading enzyme (IDE). [Related pubchem assays: 434962 (Primary screen (IDE inhibitors in singlicate)), 449730 (Counterscreen (Cytotoxicity in triplicate)), 435028 (Confirmation (IDE inhibitors in triplicate)), 434984 (Summary …; type: functional
T5 sequence (P14735 whole entry): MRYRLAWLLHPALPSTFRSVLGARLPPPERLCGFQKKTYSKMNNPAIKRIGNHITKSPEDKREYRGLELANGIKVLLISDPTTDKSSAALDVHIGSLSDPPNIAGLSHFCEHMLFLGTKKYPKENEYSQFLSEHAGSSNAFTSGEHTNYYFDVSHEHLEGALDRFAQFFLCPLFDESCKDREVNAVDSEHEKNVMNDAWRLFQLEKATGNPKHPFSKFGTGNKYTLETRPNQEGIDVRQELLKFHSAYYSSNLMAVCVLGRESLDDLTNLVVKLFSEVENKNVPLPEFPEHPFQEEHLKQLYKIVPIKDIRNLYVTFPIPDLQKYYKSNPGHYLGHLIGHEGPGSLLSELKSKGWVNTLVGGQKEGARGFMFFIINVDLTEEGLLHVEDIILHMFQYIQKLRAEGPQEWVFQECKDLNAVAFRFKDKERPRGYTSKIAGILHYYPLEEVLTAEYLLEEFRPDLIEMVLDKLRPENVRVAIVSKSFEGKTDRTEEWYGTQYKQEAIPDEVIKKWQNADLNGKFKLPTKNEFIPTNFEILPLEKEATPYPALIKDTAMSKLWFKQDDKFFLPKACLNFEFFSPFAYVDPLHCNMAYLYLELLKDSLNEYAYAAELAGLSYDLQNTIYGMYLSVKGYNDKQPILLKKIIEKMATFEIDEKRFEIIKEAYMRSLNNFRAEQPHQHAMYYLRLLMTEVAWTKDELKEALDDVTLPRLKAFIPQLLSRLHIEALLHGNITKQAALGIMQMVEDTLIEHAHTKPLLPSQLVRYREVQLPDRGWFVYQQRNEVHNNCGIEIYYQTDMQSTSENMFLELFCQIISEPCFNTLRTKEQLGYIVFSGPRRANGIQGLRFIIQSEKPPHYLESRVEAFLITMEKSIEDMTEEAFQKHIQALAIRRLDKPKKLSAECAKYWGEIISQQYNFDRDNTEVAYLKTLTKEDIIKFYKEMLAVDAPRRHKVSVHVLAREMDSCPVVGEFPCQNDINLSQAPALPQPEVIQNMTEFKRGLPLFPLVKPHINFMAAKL

[14] = Counterscreen for IDE inhibitors: Luminescence-based cell-based high throughput dose response assay to identify compounds that are cytotoxic to HEK cells. [Related pubchem assays: 434962 (Primary screen (IDE inhibitors in singlicate)), 449730 (Counterscreen (Cytotoxicity in triplicate)), 435028 (Confirmation (IDE inhibitors in triplicate)) …; type: functional; settings: HEK293
[15] = biological target: Melanin-concentrating hormone receptor 1 (Homo sapiens, UniProt Q99705); experiment: Late-stage fluorescence-based counterscreen for antagonists of the G-protein coupled receptor 7 (GPR7): cell-based dose response assay to identify antagonists of the melanin-concentrating hormone receptor 1 (MCHR1). [Related pubchem assays (depositor defined):AID1861, AID1880, AID1952, AID2148, AID2251, AID2257, AID485339]; type: functional;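 further: stimulated with 30 nM MCH peptide agonist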
[16] = biological target: Acyl-homoserine lactone acylase PvdQ (Pseudomonas aeruginosa (strain LESB58), UniProt Q9I194); experiment: PvdQ acylase enzyme activity blockers – biochemical, fluorescence, plate reader and imaging, cherry-picks, dose response (AID 493231)

Large T antigen, sequence (P03070 whole entry): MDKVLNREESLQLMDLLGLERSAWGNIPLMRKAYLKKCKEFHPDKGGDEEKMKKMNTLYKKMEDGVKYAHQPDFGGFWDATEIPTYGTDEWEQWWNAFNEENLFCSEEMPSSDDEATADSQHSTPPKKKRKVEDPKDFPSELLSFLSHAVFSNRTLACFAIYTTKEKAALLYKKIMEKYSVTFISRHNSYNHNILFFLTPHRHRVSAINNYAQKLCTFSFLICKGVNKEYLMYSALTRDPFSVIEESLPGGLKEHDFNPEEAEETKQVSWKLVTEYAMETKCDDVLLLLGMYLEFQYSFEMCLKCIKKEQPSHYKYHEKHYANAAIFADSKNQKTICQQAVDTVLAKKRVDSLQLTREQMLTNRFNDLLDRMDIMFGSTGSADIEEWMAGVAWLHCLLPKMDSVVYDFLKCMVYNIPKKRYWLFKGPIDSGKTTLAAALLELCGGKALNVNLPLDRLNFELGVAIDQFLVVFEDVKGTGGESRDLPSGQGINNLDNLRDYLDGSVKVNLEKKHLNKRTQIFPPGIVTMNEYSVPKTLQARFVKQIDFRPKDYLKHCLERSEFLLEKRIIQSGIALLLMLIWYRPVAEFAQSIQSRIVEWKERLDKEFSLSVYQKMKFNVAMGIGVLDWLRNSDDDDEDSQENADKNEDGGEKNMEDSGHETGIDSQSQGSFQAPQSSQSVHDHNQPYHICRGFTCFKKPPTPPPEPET
Cytochrome P450 3A4, sequence (P08684 whole entry): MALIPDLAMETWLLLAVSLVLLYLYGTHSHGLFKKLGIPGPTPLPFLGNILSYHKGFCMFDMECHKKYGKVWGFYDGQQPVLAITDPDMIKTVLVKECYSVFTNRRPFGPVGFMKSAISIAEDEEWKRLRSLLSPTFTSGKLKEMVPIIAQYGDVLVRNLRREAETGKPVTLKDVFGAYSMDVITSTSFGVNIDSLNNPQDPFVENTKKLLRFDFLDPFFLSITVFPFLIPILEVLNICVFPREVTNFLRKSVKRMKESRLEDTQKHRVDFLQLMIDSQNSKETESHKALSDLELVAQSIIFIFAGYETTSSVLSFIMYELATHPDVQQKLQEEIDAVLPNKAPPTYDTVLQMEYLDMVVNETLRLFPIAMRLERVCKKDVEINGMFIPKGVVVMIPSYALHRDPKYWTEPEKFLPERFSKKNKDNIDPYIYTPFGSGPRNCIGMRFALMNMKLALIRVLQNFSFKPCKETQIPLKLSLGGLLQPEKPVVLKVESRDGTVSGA
NS3, sequence (A3EZJ3 whole entry): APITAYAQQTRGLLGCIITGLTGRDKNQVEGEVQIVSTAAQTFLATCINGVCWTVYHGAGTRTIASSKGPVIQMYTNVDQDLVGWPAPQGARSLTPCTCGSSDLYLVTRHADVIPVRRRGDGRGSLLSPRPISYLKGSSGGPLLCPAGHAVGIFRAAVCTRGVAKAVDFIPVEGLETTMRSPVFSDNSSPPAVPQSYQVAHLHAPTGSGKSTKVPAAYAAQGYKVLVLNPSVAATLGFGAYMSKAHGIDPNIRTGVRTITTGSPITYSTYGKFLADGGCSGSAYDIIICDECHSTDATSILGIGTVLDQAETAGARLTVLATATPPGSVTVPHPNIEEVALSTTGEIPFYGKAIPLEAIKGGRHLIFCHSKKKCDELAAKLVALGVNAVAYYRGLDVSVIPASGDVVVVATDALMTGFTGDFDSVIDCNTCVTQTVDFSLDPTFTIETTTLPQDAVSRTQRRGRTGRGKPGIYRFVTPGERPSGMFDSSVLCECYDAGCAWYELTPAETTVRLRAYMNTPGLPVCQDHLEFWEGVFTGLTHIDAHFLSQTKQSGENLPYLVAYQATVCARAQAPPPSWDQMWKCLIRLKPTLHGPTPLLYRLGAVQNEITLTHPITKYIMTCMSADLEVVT
Heat shock 70 kDa protein 1A, sequence (P0DMV8 whole entry): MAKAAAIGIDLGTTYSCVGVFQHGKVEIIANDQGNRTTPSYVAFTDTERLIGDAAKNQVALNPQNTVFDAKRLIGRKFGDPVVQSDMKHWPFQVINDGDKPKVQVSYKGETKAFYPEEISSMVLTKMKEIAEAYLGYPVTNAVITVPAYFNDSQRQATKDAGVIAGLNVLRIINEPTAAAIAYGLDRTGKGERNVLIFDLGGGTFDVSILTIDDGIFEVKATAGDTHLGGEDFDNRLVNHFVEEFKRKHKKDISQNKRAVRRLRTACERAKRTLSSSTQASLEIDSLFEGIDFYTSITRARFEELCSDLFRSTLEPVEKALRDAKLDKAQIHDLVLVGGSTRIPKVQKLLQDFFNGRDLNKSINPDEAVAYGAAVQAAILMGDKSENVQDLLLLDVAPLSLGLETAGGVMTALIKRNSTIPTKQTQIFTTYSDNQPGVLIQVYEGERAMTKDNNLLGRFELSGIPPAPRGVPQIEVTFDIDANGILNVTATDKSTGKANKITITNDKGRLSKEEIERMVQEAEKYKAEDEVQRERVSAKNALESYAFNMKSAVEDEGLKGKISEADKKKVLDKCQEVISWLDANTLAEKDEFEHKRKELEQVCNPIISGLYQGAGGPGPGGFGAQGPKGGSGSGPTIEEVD
Oxytocin receptor, sequence (P30559 whole entry): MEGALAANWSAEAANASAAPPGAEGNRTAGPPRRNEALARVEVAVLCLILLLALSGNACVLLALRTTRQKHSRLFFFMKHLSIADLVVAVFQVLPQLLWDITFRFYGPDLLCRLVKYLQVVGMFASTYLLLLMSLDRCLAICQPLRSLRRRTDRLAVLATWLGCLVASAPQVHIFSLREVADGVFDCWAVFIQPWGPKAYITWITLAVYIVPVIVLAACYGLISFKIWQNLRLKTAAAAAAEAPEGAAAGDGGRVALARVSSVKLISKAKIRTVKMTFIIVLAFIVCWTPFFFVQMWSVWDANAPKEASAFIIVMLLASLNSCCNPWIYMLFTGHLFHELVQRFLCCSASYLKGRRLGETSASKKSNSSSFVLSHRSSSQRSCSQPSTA
Cytochrome P450 2C9, sequence (P11712 whole entry): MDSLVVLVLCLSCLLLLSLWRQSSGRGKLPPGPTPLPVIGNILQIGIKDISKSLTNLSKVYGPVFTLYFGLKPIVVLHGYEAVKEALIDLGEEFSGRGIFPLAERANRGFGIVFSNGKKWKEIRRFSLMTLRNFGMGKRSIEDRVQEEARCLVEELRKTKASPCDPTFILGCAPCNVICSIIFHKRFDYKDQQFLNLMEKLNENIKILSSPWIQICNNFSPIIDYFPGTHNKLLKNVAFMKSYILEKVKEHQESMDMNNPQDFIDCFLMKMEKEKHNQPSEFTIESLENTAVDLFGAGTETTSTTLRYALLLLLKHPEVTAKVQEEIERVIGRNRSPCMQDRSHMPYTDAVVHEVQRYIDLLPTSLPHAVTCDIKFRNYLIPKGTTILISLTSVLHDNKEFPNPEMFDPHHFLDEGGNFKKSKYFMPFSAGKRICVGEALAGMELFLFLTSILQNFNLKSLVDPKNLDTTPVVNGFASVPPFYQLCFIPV
Heat shock cognate 71 kDa protein, sequence (P11142 whole entry): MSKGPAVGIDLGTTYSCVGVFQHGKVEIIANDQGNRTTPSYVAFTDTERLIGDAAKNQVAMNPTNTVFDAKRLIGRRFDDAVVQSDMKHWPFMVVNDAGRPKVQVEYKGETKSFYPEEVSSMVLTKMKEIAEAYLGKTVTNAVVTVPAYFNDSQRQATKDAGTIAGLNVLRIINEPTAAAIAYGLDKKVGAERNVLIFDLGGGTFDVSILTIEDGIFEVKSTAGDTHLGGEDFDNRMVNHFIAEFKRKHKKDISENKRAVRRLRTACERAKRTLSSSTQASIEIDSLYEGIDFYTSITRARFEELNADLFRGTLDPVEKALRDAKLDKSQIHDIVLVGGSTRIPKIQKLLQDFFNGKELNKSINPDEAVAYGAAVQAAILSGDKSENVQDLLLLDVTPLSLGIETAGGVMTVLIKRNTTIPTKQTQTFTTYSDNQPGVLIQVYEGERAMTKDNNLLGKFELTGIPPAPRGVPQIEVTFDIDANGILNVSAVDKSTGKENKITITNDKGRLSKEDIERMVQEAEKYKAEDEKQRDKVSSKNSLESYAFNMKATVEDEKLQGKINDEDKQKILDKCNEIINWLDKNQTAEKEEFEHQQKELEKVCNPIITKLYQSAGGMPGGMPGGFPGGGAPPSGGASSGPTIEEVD
Vasopressin V1a receptor, sequence (P37288 whole entry): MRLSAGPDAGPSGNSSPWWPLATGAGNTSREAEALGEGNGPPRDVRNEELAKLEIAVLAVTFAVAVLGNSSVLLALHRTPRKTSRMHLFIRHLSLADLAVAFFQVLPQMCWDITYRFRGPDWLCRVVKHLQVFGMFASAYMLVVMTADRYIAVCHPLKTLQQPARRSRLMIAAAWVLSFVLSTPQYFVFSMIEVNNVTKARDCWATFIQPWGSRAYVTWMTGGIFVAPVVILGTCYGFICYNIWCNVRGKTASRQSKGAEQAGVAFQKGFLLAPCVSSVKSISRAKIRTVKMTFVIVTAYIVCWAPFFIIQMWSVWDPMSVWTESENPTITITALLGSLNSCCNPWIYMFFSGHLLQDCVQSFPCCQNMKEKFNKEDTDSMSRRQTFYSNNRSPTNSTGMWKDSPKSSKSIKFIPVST
Melanin-concentrating hormone receptor 1, sequence (Q99705 whole entry): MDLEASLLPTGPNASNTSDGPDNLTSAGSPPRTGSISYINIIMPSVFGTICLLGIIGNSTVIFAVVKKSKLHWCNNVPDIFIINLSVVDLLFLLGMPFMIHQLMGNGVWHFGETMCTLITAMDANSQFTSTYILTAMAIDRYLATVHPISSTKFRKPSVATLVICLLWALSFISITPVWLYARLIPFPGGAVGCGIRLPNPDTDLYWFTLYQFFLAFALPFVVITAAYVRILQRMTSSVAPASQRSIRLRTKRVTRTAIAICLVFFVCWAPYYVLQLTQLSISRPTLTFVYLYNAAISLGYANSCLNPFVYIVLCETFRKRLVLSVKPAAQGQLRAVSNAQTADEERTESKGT
Eukaryotic translation initiation factor 4E, sequence (P63073 whole entry): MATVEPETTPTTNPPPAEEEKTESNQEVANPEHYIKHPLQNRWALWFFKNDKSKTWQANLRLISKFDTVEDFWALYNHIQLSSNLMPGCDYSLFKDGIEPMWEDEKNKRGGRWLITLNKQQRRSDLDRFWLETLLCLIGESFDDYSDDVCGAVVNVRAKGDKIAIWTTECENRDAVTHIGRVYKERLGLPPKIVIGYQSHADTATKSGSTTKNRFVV

CN(C)S(=O)(=O)c1ccc(NC(=S)NC(=O)Cc2ccccc2)cc1
AC50 (Vibrio harveyi): 66.4 µM (active)

Cc1ccc2c(c1)C1C=CCC1C(C(=O)O)N2 (stereo not drawn)
IC50 [1]: > 100 µM (not active)
IC50 [2]: 15.6 µM (active)
IC50 [3]: > 10 µM (not active)
IC50 [4]: 5.44 µM (active)
IC50 (Large T antigen): 9.1 µM (active)
IC50 [5]: 4.77 µM (active)
IC50 [6]: 70.7 µM (active)
IC50 (NS3): 37.5 µM (inactive)
IC50 [7]: 8 µM (active)
IC50 [8]: > 54 µM (active)

Cc1cc(-c2nnc(SCc3cccnc3)o2)no1
EC50 [9]: > 50 µM (not active)

CC(=O)c1c(C)[nH]c(C(=O)CN2C(=O)NC(C)(c3ccc(C)cc3)C2=O)c1C (stereo not drawn)
EC50 [10]: 11.6 µM (active)
EC50 (Vasopressin V1a receptor): > 29.9 µM (not active)
EC50 (Oxytocin receptor): > 29.9 µM (not active)

CCCCCCCC1=Cc2ccccc2C(CC(C)=O)N1C(=O)OC (stereo not drawn)
AC50 (Cytochrome P450 2D6): 3.98 µM (inconclusive)
AC50 (Cytochrome P450 2C9): 6.31 µM (inconclusive)
AC50 (Cytochrome P450 3A4): 3.16 µM (inconclusive)

COc1ccc(Cn2nc(C)cc2OC(=O)c2c(F)ccc(C)c2F)cc1
CC50 (Vero): > 200 µM (active)
IC50 [11]: 131 µM (active)

COc1ccc(C(=O)N/C(=C\c2cccs2)c2nc3ccccc3[nH]2)cc1OC
IC50 (cells): 25.6 µM (active)
CC50 [12]: > 50 µM (active)
EC50 [13]: > 195 µM (not active)

COc1cc(-c2cc(=O)c3ccccc3o2)ccc1O
IC50 (Insulin-degrading enzyme): > 6.21 µM (active)
IC50 (Large T antigen): 9.46 µM (active)
IC50 [14]: > 55.6 µM (not active)

CCc1ccc(-n2ncc(Cl)c(Oc3ccc(OC)cc3)c2=O)cc1
IC50 [15]: 3.9 µM (active)

CCOC(=O)CC(C#N)c1cn(C)c2ccccc12 (stereo not drawn)
AC50 [16]: 7.18 µM (active)
